The target of assay [1] is T1, 5-HT6 receptor (Homo sapiens (Human), UniProt P50406). The assay is described as follows: functional assay for serotonin 5-HT6 receptor inhibition (serotonin-induced intracellular cAMP, LANCE cAMP kit, HEK 293 cells). The format is cell-based. As to conditions: HEK 293 cells with expressed 5-HT6 receptor; reduction of serotonin-induced intracellular cAMP. Here is the method: Determination of antagonistic activity of compounds of the general formula 1 towards 5-HT6 receptors. Compounds of the general formula 1 were tested for their ability to prevent 5-HT6 receptors activation by serotonin. HEK 293 cells (cells of human embryo's kidney) with artificially expressed 5-HT6 receptor, activation of which by serotonin leads to increasing the concentration of intracellular cAMP, were used. The level of intracellular cAMP was determined using reagent kit LANCE cAMP (PerkinElmer) according to the method described by the manufacturer of the kit [http://las.perkinelmer.com/content/Manuals/MAN_LANCEcAMP384KitUser.pdf]. Effectiveness of the compounds was estimated by their ability to reduce the level of intracellular cAMP induced by serotonin. Table 4 presents IC50 values for the compounds of general formula 1 in the setting of functional assay for serotonin 5-HT6 receptor inhibition. The data given testify their moderate or high antagonistic activity.
(In general: TR-FRET usually uses a lanthanide donor and a delayed reading to cut background.)

Assay [2] deals with T1, 5-HT6 receptor. The assay is described as follows: competitive radioligand binding ([3H] Lysergic acid diethylamide) to serotonin 5-HT6 receptors, HeLa cell membranes. As to conditions: read-out: IC50, competitive assay of serotonin 5-HT6 receptor inhibition; displacement of 1.5 nM [3H] Lysergic acid diethylamide, 120 min at 37° C.
Protocol: Determination of activity of the compounds of the general formula 1 in the setting of competitive binding to serotonin 5-HT6 receptors.
Screening of the disclosed compounds for their potential ability to interact with serotonin 5-HT6 receptors was carried out by method of radioligand binding. For this purpose membrane species were prepared from expressing recombinant human 5-HT6 receptors HeLa cells by means of their homogenization in glass homogenizer with subsequent separation of plasmatic membranes from cell nucli, mitochondria's and cell wreckages by differential centrifugation. Determination of tested compounds binding to 5-HT6 receptors was carried out according to the method described in [Monsma F J Jr, Shen Y, Ward R P, Hamblin M W and Sibley D R, Cloning and expression of a novel serotonin receptor with high affinity for tricyclic psychotropic drugs. […] After incubation the samples were filtered in vacuo on glass-microfiber filters G/F (Millipor, USA), filters were washed three times with cold solution of the medium and radioactivity was measured by scintillation counter MicroBeta 340 (PerkinElmer, USA). Nonspecific binding which made up 30% of overall binding was determined by incubation of membrane preparations with radioligand in the presence of 5 μM Serotonin (5-HT). Methiothepin was used as positive control. Binding of the tested compounds to the receptor was determined by their ability to displace the radioligand and expressed in percent of displacement. The percent of displacement was calculated according to the following equation:
[formula] wherein: TA—was overall radioactivity in the presence of radioligand only, CA—was radioactivity in the presence of radioligand and tested compound and NA—was radioactivity in the presence of radioligand and Serotonin (5 μM).
Another assay has as its system male mice of BALB/c line. Kind of assay: Mice Behavior in the Elevated Plus Maze. The class given is in vivo, mouse. Here is the method:
Anxiolytic activity of compounds 1.1(11), 1.2.7(1), 1.2.6(1), 1.2.3(1), 1.2.11(1), 1.2.22(1), 1.2.22(18) in test “Mice Behavior in the Elevated Plus Maze”. The experiments were carried out in aged male mice of BALB/c line weighing about 25 g. The animals were housed 5-7 per cage with water and food available. None of the animals was acquainted with the experimental set-up before. Each experimental group included 8 animals.
The procedure used was described earlier by Lister (Lister R. G. The use of a plus-maze to measure anxiety in the mouse. Psychopharmacology, 1987; 92:180-185). Plexiglass set-up consisted of two opened arms of 30×5 cm size and two closed arms of 30×5×15 cm size. Side arms were closed with transparent plexiglass and were connected with the central zone via a platform of 5×5 cm size. The opened arms, central platform and floor were made of black plexiglass. The set-up was mounted on a metallic base which was placed 38.5 cm above the floor level.
The animals were injected intraperitoneally with placebo, Buspirone (5 mg/kg, 30 minutes before training), Lorazepam (0.05 mg/kg, 60 minutes before training) or with one of the tested compounds 1.1(11), 1.2.7(1), 1.2.6(1), 1.2.3(1), 1.2.11(1), 1.2.22(1), 1.2.22(18). Buspirone and Lorazepam were introduced in a maximal effective dose, at which side sedative effect and general decrease of exploratory activity (the number of arm entries during the test) were not observed yet.
Each mouse was placed in the maze center with its head towards the opened arm. Over a period of 5 minutes the sequence and duration of arm entries were registered by means of a computer program. Criterion for entry is a location of all animal's paws inside the arm at the same time. The index of preference was calculated as a ratio of the time spent by the animal in the opened arms as well as the number of entries into the opened arms to the total time spent by it in the opened and closed arms or, respectively, to the whole number of entries to the arms of both types. The number of defecations left by a mouse was regarded as an additional parameter characterizing the anxiety state. Being in normal state the animals usually avoid open arms (the preference index is between 0.2 and 0.3).

The subject of a further assay is rats. Kind of assay: Passive avoidance in the shuttle chamber, amnesia caused by MK-801, rats. The format is in vivo, rat. As to conditions: MK-801 0.1 mg/kg i.p., compounds injected 60 minutes before the test, FIG. 8-10.
In the next assay the test system is Mice of SHK line. Kind of assay: Prepulse inhibition of the startle response in mice (Apomorphine model). The format is in vivo, mouse. As to conditions: 1 mg/kg i.p. 60 minutes before the test; FIG. 17. Here is the method:
Mice of SHK line weighing about 24-30 g were used in the test. The experiments were carried out during the light period of animal's diurnal. Apomorphine hydrochloride and Haloperidol were received from Sigma Chemicals Company, (USA). Apomorphine hydrochloride was dissolved in 0.1% solution of ascorbic acid prepared with sterilized water; it was introduced subcutaneously 15 minutes before the test. Haloperidol was dissolved in sterilized water using emulsifier Twin 80, it was introduced intraperitoneally 60 minutes before the test. Compounds 1.2.22(1), 1.2.22(18), 1.2.7(1) were dissolved in sterilized water and introduced intraperitoneally 60 minutes before the test. The injection volume was 10 ml/kg. 0.1%. Solution of ascorbic acid, prepared with sterilized water and Twin 80, was injected to control group of animals.
The test instrument consisted of a chamber made of transparent plexiglass (manufacturer—Columbia Instruments Company, USA) and placed on the platform; the latter was lodged inside the sound insulating chamber. A high frequency sound column transmitting acoustic stimuluses was located 2 cm away from the platform. […] The level of background noise made up 65 dB. Each animal received 4 stimuli of single testing (pulse) stimulus of 50 ms duration and 105 dB or prepulsory stimulus (pre-pulse) of 20 ms duration and 85 dB, after which in 30 ms pulse stimulus of 50 ms duration and 105 dB followed. Time interval between repeated pulse or prepulse in combination with pulse stimuli made up 10 s. Inhibition of the startle in reply to prepulse-plus-pulse stimulus was calculated in percentage towards amplitude of startle in response to isolated pulse stimulus.

Another assay has as its system male mice of SHK line. The assay is described as follows: Novel object recognition test, Scopolamine amnesia model. The class given is in vivo, mouse. As to conditions: Scopolamine 1 mg/kg i.p. The protocol: 14.1.2. Novel object recognition test. The test was carried out in aged male mice of SHK line. […] A mouse was placed into the central chamber and allowed to explore the maze. The floor was cleaned after each animal. The sequence of chamber entries and duration of visits were registered by the observer. The test was ended after 13 entries into the dead-end chambers. Criterion for entry was a location of all animal's paws inside the chamber at the same time.
During the training the animal was placed in the maze with one equiform bowl in each side chamber. In the course of testing (one hour after training) two opposite standing bowls were replaced by identical flasks, and the animal was allowed to explore the maze. The time spent by the animal in each side chamber was registered during the periods of training and testing. Index of novel object recognition was calculated as the ratio of time spent by the animal in the side chambers with novel objects to the total time spent by it in all side chambers.

Counter-ions that a name gives are not always drawn.

In general, IC50 refers to the concentration that inhibits the measured activity by half.

T1 sequence (P50406 whole entry): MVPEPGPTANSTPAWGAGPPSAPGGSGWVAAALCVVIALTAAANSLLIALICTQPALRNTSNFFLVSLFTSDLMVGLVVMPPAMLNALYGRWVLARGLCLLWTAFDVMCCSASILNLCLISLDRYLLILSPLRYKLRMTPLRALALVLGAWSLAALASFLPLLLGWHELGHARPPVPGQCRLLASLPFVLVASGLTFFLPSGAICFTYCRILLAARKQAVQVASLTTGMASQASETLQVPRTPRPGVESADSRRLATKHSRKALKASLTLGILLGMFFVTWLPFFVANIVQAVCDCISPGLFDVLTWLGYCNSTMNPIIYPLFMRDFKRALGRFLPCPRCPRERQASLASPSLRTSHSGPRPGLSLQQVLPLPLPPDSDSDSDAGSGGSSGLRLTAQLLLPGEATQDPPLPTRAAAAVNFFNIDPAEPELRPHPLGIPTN

As for `CNc1nn2cccnc2c1S(=O)(=O)c1cccc(Cl)c1` [1.2.1(4), 2-methylamino-3-(3-chlorophenylsulfonyl)-pyrazolo[1,5-a]pyrimidine], the results for the IC50 against 5-HT6 receptor [1] and on 5-HT6 receptor [2] were 0.024 µM and 0.00501 µM, respectively.
On to `CNc1nn2c(C)ccnc2c1S(=O)(=O)c1ccccc1` [1.2.3(1), 7-methyl-2-methylamino-3-phenylsulfonyl-pyrazolo[1,5-a]pyrimidine], for which the results for the IC50 at 5-HT6 receptor [1] and on 5-HT6 receptor [2] were 0.003 µM and 0.00074 µM, respectively.
`CNc1nn2c(COC)cc(C)nc2c1S(=O)(=O)c1ccccc1` [1.2.4(1), 5-methyl-2-methylamino-7-(methoxymethyl)-3-phenylsulfonyl-pyrazolo[1,5-a]pyrimidine]: the IC50 was determined as 0.101 µM against 5-HT6 receptor [1] and 0.00034 µM on 5-HT6 receptor [2].
As for `CNc1nn2c(OC)cc(-c3cccnc3)nc2c1S(=O)(=O)c1ccccc1` [1.2.10(3), 2-methylamino-7-methoxy-5-(pyridin-3-yl)-3-phenylsulfonyl-pyrazolo[1,5-a]pyrimidine], the IC50 against 5-HT6 receptor [1] is 0.012 µM; on 5-HT6 receptor [2] it was less than 0.01 µM.
Regarding `CNc1nn2c(N)cc(C)nc2c1S(=O)(=O)c1ccccc1` [1.2.11(1), 7-amino-5-methyl-2-methylamino-3-phenylsulfonyl-pyrazolo[1,5-a]pyrimidine], in the assay on male mice of BALB/c line (tested compounds i.p., FIG. 14-16), the “anxiolytic activity in the elevated plus maze” value was “anxiolytic activity analogous to the activity of control compounds”. Moreover, the IC50 against 5-HT6 receptor [1] is 0.012 µM; on 5-HT6 receptor [2] it was 0.000293 µM.
For `CNc1nn2c(NCCN(C)C)cc(C)nc2c1S(=O)(=O)c1ccccc1` [1.2.12(3), 7-(2-dimethylamino)ethylamino-5-methyl-2-methylamino-3-phenylsulfonyl-pyrazolo[1,5-a]pyrimidine], the IC50 on 5-HT6 receptor [1] was determined as 1.55 µM; at 5-HT6 receptor [2], 0.0699 µM.
Consider `CNc1nn2c(N3CCN(C)CC3)cc(C)nc2c1S(=O)(=O)c1ccccc1` [1.2.12(4).HCl], for which the half-maximal inhibitory concentration (IC50) turned out to be 0.173 µM against 5-HT6 receptor [1] and 0.00419 µM at 5-HT6 receptor [2].
The corresponding values for `CNc1nn2c(C)c(CCC(=O)N(C)CCN(C)C)c(C)nc2c1S(=O)(=O)c1ccccc1` [1.2.19(2).HCl] are 1.68 µM and 0.174 µM.
The corresponding values for `CNc1nn2c(C)c(CCC(=O)N(C)CCCN(C)C)c(C)nc2c1S(=O)(=O)c1ccccc1` [1.2.19(3).HCl] are 2.28 µM and 0.291 µM.
Regarding `CNc1nn2c(C)c(CCC(=O)N3CCN(C)CC3)c(C)nc2c1S(=O)(=O)c1ccccc1` [1.2.19(4).HCl], the figures for the IC50 on 5-HT6 receptor [1] and at 5-HT6 receptor [2] were 6.06 µM and 0.306 µM, respectively.
`CNc1nn2c(C)c(N)c(C)nc2c1S(=O)(=O)c1ccccc1.Cl` [1.2.22(1), 6-amino-5,7-dimethyl-2-methylamino-3-phenylsulfonyl-pyrazolo[1,5-a]pyrimidine]: in the assay with rats, the “effect on amnesia caused by MK-801 (latent period, light arm stay, dark arm entries)” value is listed as “decrease amnesia caused by MK-801”. In addition, the “effect on Apomorphine-disturbed prepulse inhibition of startle” value in the assay with Mice of SHK line is on record as “prevented disturbance of prepulse inhibition of startle caused by Apomorphine”. In addition, in the assay with male mice of SHK line (compounds i.p. 60 minutes before training, FIG. 7), the “prevention of Scopolamine-disturbed novel object recognition” value (“prevention” for short) was “prevent memory impairment caused by Scopolamine”.
`CNc1nn2c(C)c(N)c(C)nc2c1S(=O)(=O)c1ccccc1` [1.2.22(1).HCl]: the half-maximal inhibitory concentration (IC50) is 0.0113 µM against 5-HT6 receptor [1] and 0.00067 µM on 5-HT6 receptor [2].
As for `CNc1nn2c(C)c(CN)c(C)nc2c1S(=O)(=O)c1ccccc1` [1.2.22(2).HCl], the values for the IC50 on 5-HT6 receptor [1] and on 5-HT6 receptor [2] were 0.009 µM and 0.00056 µM, respectively.
Consider `CNc1nn2c(C)c(CCN)c(C)nc2c1S(=O)(=O)c1ccccc1` [1.2.22(3).HCl], for which the IC50 is 0.045 µM against 5-HT6 receptor [1] and 0.000645 µM at 5-HT6 receptor [2].
`CNc1nn2c(C)c(CN)c(C)nc2c1S(=O)(=O)c1cccc(Cl)c1` [1.2.22(5).HCl]: the IC50 on 5-HT6 receptor [1] came to 0.01 µM; on 5-HT6 receptor [2], 0.000227 µM.
Consider `O=C1CC2(CCCC2)CC(=O)N1CCCCN1CCN(c2ncccn2)CC1` [Buspirone, reference compound], for which the “anxiolytic effect in the elevated plus maze” value in the assay on male mice of BALB/c line (Buspirone 5 mg/kg i.p., 30 minutes before training) is “well-marked anxiolytic effect”.
For `Cc1ccc2c(c1)c1c(n2CCc2ccc(C)nc2)CCN(C)C1` [Dimebon, reference compound], the “prevention” value in the assay with male mice of SHK line (Dimebon 0.1 mg/kg i.p. 5 minutes before training) is on record as “prevented”.
As to `O=C(CCCN1CCC(O)(c2ccc(Cl)cc2)CC1)c1ccc(F)cc1` [Haloperidol, reference compound], the “effect on Apomorphine-disturbed prepulse inhibition of startle” value with Mice of SHK line was “prevented disturbance of prepulse inhibition of startle caused by Apomorphine”.
With `O=C1Nc2ccc(Cl)cc2C(c2ccccc2Cl)=NC1O` (stereo not shown) [Lorazepam, reference compound], in the assay with male mice of BALB/c line (Lorazepam 0.05 mg/kg i.p., 60 minutes before training), the “anxiolytic effect in the elevated plus maze” value is given as “well-marked anxiolytic effect”.
On to `Nc1c2c(nc3ccccc13)CCCC2` [Tacrine, reference compound], for which the “prevention” value with male mice of SHK line (Tacrine 10 mg/kg i.p. 30 minutes before training) is “prevented”.

For the origin of these results see patent publication US8618114B2 (priority 2008, dated 2013).
